Our source for the EC50 values is BindingDB's records for doi:10.7270/Q2K935WV (Nmmlsc, 2008).

The target in one assay is Isoform Bcl-X(L) of Bcl-2-like protein 1 (Bcl-xL) (Homo sapiens, UniProt Q07817). Description: Bcl-XL binding to Bim peptide disruption – biochemical, multiplexed, bead flow cytometry, human Bcl-XL, dose response (AID 1322). To be noted: inactive by the depositor's call; pH 7.4; 4 °C. (Flow cytometry measures light scatter and fluorescence of single cells or particles in a stream.)
Isoform Bcl-X(L) of Bcl-2-like protein 1 (Bcl-xL), sequence (Q07817 whole entry G70A, canonical isoform): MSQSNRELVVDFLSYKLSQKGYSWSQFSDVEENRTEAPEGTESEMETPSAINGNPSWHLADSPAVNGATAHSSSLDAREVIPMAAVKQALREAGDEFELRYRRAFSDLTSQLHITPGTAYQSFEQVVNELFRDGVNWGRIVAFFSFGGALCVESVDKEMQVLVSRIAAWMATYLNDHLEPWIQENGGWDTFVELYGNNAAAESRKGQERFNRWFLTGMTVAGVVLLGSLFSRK
Usually EC50 stands for the concentration that produces a half-maximal response. Low readings indicate an effect from little substance, high ones a need for much substance. Compound `COc1ccc(OC)c(-n2c(=O)c3ccccc3c3ccccc3c2=O)c1` [SMR000236434] showed an EC50 of 17.6 µM.

Consider `O=C1c2ccccc2-c2onc3ccc(N4CCCC4)c1c23` [SMR000279741], for which the concentration giving a half-maximal response (EC50) worked out at 13.1 µM. Consider `O=C(CSc1ccc2nnc(-c3ccncc3)n2n1)Nc1nccs1` [SMR000320332], for which the midpoint of the response, the EC50, lay at 22.2 µM. In turn, `O=C(Nc1cccc(Cl)c1)Nc1ccnc(-c2cccnc2)n1` [SMR000337179] returned an EC50 of 1.14 µM. On to `O=c1c2c(-c3ccccc3)csc2nc2c3ccccc3c(NCCN3CCOCC3)nn12` [SMR000352519], for which it took 0.41 µM to reach a half-maximal effect (EC50). Still for that read-out and setting: next, `Cc1ccnc(Nc2nc(-c3c(C)nc4sccn34)cs2)c1` [[4-(6-Methyl-imidazo[2,1-b]thiazol-5-yl)-thiazol-2-yl]-(4-methyl-pyridin-2-yl)-amine]: 24 µM. Compound `CCOC(=O)c1nc(Nc2ccc(C(=O)OC)cc2)c2ccccc2n1` [ethyl 4-(4-methoxycarbonylanilino)quinazoline-2-carboxylate] had an EC50 of 13.5 µM. `CN(N=Cc1ccncc1)C1=NS(=O)(=O)c2ccccc21` [isonicotinaldehyde (1,1-dioxido-1,2-benzisothiazol-3-yl)(methyl)hydrazone] had an EC50 of 2.64 µM.

Staying with this assay, now noted: pH 7.4; 4 °C.
`Nc1c(C(=O)NCC2CCCO2)sc2nc3c(c(-c4ccco4)c12)CC/C3=C\c1ccco1` (configuration not stated) [SMR000259502] gave an EC50 of 6.11 µM.

For the compound `Nc1c(C(=O)NC2CC2)sc2nc3c(c(-c4ccco4)c12)CC/C3=C/c1ccco1` [SMR000259554], it took 9.01 µM to reach a half-maximal effect (EC50). The same measure, in the same setting: next, `Cc1nnc2ccc(-c3cccc(NC(=O)c4ccco4)c3)nn12` [SMR000324305]: 5.17 µM.

Compound `CCN1/C(=C/C(C)=C/c2sc3ccccc3[n+]2CC)Sc2ccccc21` [SMR000354813] came in with an EC50 of 26.4 µM.
